The subject of one experiment is H3255. The experiment can be described thus: relative viability (nuclei count vs DMSO), 5 days (fraction); higher = more cells survive. Conditions: first compound 0.08 µM. In short, it runs like this:
(§1)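 Relative viability equals treated-well nuclei counts divided by vehicle-well nuclei counts. Counts came from 4× images of lung cancer cell lines grown in 1536-well plates for 5 days after pin-tool dosing on the day after seeding. Dosing used one drug alone or a fixed anchor-drug dose plus five library-drug doses (not always all listed) in √10 steps, and values are medians of duplicate plates.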
`CCCCCCCCCCCC1=C(O)C(=O)C=C(O)C1=O` [Embelin] + CCNC(=O)c1noc(-c2cc(C(C)C)c(O)cc2O)c1-c1ccc(CN2CCOCC2)cc1 [Luminespib] (partner 0.01 µM) yielded a relative viability of 0.848.

Take `CCCCCCCCCCCC1=C(O)C(=O)C=C(O)C1=O` [Embelin] + Cc1nc(Nc2ncc(C(=O)Nc3c(C)cccc3Cl)s2)cc(N2CCN(CCO)CC2)n1 [Dasatinib] (partner 0.075 µM): the relative viability is 0.355.

The compound `CCCCCCCCCCCC1=C(O)C(=O)C=C(O)C1=O` [Embelin] + CC(=O)c1c(C)c2cnc(Nc3ccc(N4CCNCC4)cn3)nc2n(C2CCCC2)c1=O [Palbociclib] (partner 0.5 µM) had a relative viability of 0.324.

`CCCCCCCCCCCC1=C(O)C(=O)C=C(O)C1=O` [Embelin] + COc1cccc2cc(-c3nc([C@H]4CC[C@H](C(=O)O)CC4)n4ncnc(N)c34)[nH]c12 [OSI-027] (partner 0.5 µM) gave a relative viability of 0.586.

Compound `CCCCCCCCCCCC1=C(O)C(=O)C=C(O)C1=O` [Embelin] + Nc1nc2[nH]cc(CCc3ccc(C(=O)N[C@@H](CCC(=O)O)C(=O)O)cc3)c2c(=O)[nH]1 [Pemetrexed] (partner 0.2 µM) displayed a relative viability of 0.566.

Staying with this experiment, now noted: first compound 0.8 µM.
The compound `CCCCCCCCCCCC1=C(O)C(=O)C=C(O)C1=O` [Embelin] + CCNC(=O)c1noc(-c2cc(C(C)C)c(O)cc2O)c1-c1ccc(CN2CCOCC2)cc1 [Luminespib] (partner 0.01 µM) showed a relative viability of 0.954.

As to `CCCCCCCCCCCC1=C(O)C(=O)C=C(O)C1=O` [Embelin] + Cc1nc(Nc2ncc(C(=O)Nc3c(C)cccc3Cl)s2)cc(N2CCN(CCO)CC2)n1 [Dasatinib] (partner 0.075 µM), the relative viability was 0.378.

In turn, `CCCCCCCCCCCC1=C(O)C(=O)C=C(O)C1=O` [Embelin] + CC(=O)c1c(C)c2cnc(Nc3ccc(N4CCNCC4)cn3)nc2n(C2CCCC2)c1=O [Palbociclib] (partner 0.5 µM) gave a relative viability of 0.347.

As for `CCCCCCCCCCCC1=C(O)C(=O)C=C(O)C1=O` [Embelin] + COc1cccc2cc(-c3nc([C@H]4CC[C@H](C(=O)O)CC4)n4ncnc(N)c34)[nH]c12 [OSI-027] (partner 0.5 µM), the relative viability was determined as 0.628.

With `CCCCCCCCCCCC1=C(O)C(=O)C=C(O)C1=O` [Embelin] + Nc1nc2[nH]cc(CCc3ccc(C(=O)N[C@@H](CCC(=O)O)C(=O)O)cc3)c2c(=O)[nH]1 [Pemetrexed] (partner 0.2 µM), the relative viability worked out at 0.616.

The experiment is the same for the next values; noted with them: first compound 2.53 µM.
`CCCCCCCCCCCC1=C(O)C(=O)C=C(O)C1=O` [Embelin] + CCNC(=O)c1noc(-c2cc(C(C)C)c(O)cc2O)c1-c1ccc(CN2CCOCC2)cc1 [Luminespib] (partner 0.01 µM): the relative viability was 0.935.

In the case of `CCCCCCCCCCCC1=C(O)C(=O)C=C(O)C1=O` [Embelin] + Cc1nc(Nc2ncc(C(=O)Nc3c(C)cccc3Cl)s2)cc(N2CCN(CCO)CC2)n1 [Dasatinib] (partner 0.075 µM), the relative viability stood at 0.298.

Turning to `CCCCCCCCCCCC1=C(O)C(=O)C=C(O)C1=O` [Embelin] + CC(=O)c1c(C)c2cnc(Nc3ccc(N4CCNCC4)cn3)nc2n(C2CCCC2)c1=O [Palbociclib] (partner 0.5 µM), the relative viability was 0.328.

In turn, `CCCCCCCCCCCC1=C(O)C(=O)C=C(O)C1=O` [Embelin] + COc1cccc2cc(-c3nc([C@H]4CC[C@H](C(=O)O)CC4)n4ncnc(N)c34)[nH]c12 [OSI-027] (partner 0.5 µM) displayed a relative viability of 0.63.

Compound `CCCCCCCCCCCC1=C(O)C(=O)C=C(O)C1=O` [Embelin] + Nc1nc2[nH]cc(CCc3ccc(C(=O)N[C@@H](CCC(=O)O)C(=O)O)cc3)c2c(=O)[nH]1 [Pemetrexed] (partner 0.2 µM) showed a relative viability of 0.597.

Still in this experiment, the particulars now being: first compound 8 µM.
The compound `CCCCCCCCCCCC1=C(O)C(=O)C=C(O)C1=O` [Embelin] + CCNC(=O)c1noc(-c2cc(C(C)C)c(O)cc2O)c1-c1ccc(CN2CCOCC2)cc1 [Luminespib] (partner 0.01 µM) showed a relative viability of 0.965.

For `CCCCCCCCCCCC1=C(O)C(=O)C=C(O)C1=O` [Embelin] + Cc1nc(Nc2ncc(C(=O)Nc3c(C)cccc3Cl)s2)cc(N2CCN(CCO)CC2)n1 [Dasatinib] (partner 0.075 µM), the relative viability turned out to be 0.456.

Take `CCCCCCCCCCCC1=C(O)C(=O)C=C(O)C1=O` [Embelin] + CC(=O)c1c(C)c2cnc(Nc3ccc(N4CCNCC4)cn3)nc2n(C2CCCC2)c1=O [Palbociclib] (partner 0.5 µM): the relative viability turned out to be 0.295.

Turning to `CCCCCCCCCCCC1=C(O)C(=O)C=C(O)C1=O` [Embelin] + COc1cccc2cc(-c3nc([C@H]4CC[C@H](C(=O)O)CC4)n4ncnc(N)c34)[nH]c12 [OSI-027] (partner 0.5 µM), the relative viability amounted to 0.587.

Take `CCCCCCCCCCCC1=C(O)C(=O)C=C(O)C1=O` [Embelin] + Nc1nc2[nH]cc(CCc3ccc(C(=O)N[C@@H](CCC(=O)O)C(=O)O)cc3)c2c(=O)[nH]1 [Pemetrexed] (partner 0.2 µM): the relative viability came to 0.585.

For the next experiment, the system named is BEN. The experiment is described as above. Conditions: first compound 0.08 µM. The essentials: as §1
For the compound `CCCCCCCCCCCC1=C(O)C(=O)C=C(O)C1=O` [Embelin] + CCNC(=O)c1noc(-c2cc(C(C)C)c(O)cc2O)c1-c1ccc(CN2CCOCC2)cc1 [Luminespib] (partner 0.01 µM), the relative viability came to 0.29.

`CCCCCCCCCCCC1=C(O)C(=O)C=C(O)C1=O` [Embelin] + Cc1nc(Nc2ncc(C(=O)Nc3c(C)cccc3Cl)s2)cc(N2CCN(CCO)CC2)n1 [Dasatinib] (partner 0.075 µM) registered a relative viability of 0.355.

Consider `CCCCCCCCCCCC1=C(O)C(=O)C=C(O)C1=O` [Embelin] + CC(=O)c1c(C)c2cnc(Nc3ccc(N4CCNCC4)cn3)nc2n(C2CCCC2)c1=O [Palbociclib] (partner 0.5 µM), for which the relative viability was found to be 0.486.

With `CCCCCCCCCCCC1=C(O)C(=O)C=C(O)C1=O` [Embelin] + COc1cccc2cc(-c3nc([C@H]4CC[C@H](C(=O)O)CC4)n4ncnc(N)c34)[nH]c12 [OSI-027] (partner 0.5 µM), the relative viability is 0.287.

As to `CCCCCCCCCCCC1=C(O)C(=O)C=C(O)C1=O` [Embelin] + Nc1nc2[nH]cc(CCc3ccc(C(=O)N[C@@H](CCC(=O)O)C(=O)O)cc3)c2c(=O)[nH]1 [Pemetrexed] (partner 0.2 µM), the relative viability amounted to 0.763.

Still in this experiment, the particulars now being: first compound 0.8 µM.
`CCCCCCCCCCCC1=C(O)C(=O)C=C(O)C1=O` [Embelin] + CCNC(=O)c1noc(-c2cc(C(C)C)c(O)cc2O)c1-c1ccc(CN2CCOCC2)cc1 [Luminespib] (partner 0.01 µM) registered a relative viability of 1.12.

On to `CCCCCCCCCCCC1=C(O)C(=O)C=C(O)C1=O` [Embelin] + Cc1nc(Nc2ncc(C(=O)Nc3c(C)cccc3Cl)s2)cc(N2CCN(CCO)CC2)n1 [Dasatinib] (partner 0.075 µM), for which the relative viability was determined as 0.359.

Regarding `CCCCCCCCCCCC1=C(O)C(=O)C=C(O)C1=O` [Embelin] + CC(=O)c1c(C)c2cnc(Nc3ccc(N4CCNCC4)cn3)nc2n(C2CCCC2)c1=O [Palbociclib] (partner 0.5 µM), the relative viability was found to be 0.545.

`CCCCCCCCCCCC1=C(O)C(=O)C=C(O)C1=O` [Embelin] + COc1cccc2cc(-c3nc([C@H]4CC[C@H](C(=O)O)CC4)n4ncnc(N)c34)[nH]c12 [OSI-027] (partner 0.5 µM) came in with a relative viability of 0.341.

`CCCCCCCCCCCC1=C(O)C(=O)C=C(O)C1=O` [Embelin] + Nc1nc2[nH]cc(CCc3ccc(C(=O)N[C@@H](CCC(=O)O)C(=O)O)cc3)c2c(=O)[nH]1 [Pemetrexed] (partner 0.2 µM) returned a relative viability of 0.823.

The experiment is the same for the next values; noted with them: first compound 2.53 µM.
Turning to `CCCCCCCCCCCC1=C(O)C(=O)C=C(O)C1=O` [Embelin] + CCNC(=O)c1noc(-c2cc(C(C)C)c(O)cc2O)c1-c1ccc(CN2CCOCC2)cc1 [Luminespib] (partner 0.01 µM), the relative viability is 0.435.

Source of the values: the supplement of paper PMC10307832.
